Measurements reported in patent US6486199B1, “Spiro and dispiro 1,2,4-trioxolane antimalarials” (Medicines for Malaria Venture MMV International Centre …, priority 2001, dated 2002).
Values after ≈ are worked out from the molar mass of the structure shown. Like-named read-outs stand apart in the source and are kept apart here. Marks after values point to notes of the source that are not given here.

Columns and labels:
[1] = test system: chloroquine-sensitive NF54 strain of P. falciparum; assay: in vitro screen against chloroquine-sensitive NF54 strain of P. falciparum; format: cell-based; conditions: for IC50: Plasmodium falciparum
[2] = test system: chloroquine-resistant K1 strain of P. falciparum; assay: in vitro screen against chloroquine-resistant K1 strain of P. falciparum; format: cell-based; conditions: for IC50: Plasmodium falciparum; for in vitro potency: strains not distinguished
[3] = differential scanning calorimetry (DSC), thermal stability; format: physicochemical; conditions: thermal decomposition
[4] = test system: ANKA strain of P. Berghei; assay: single dose STI in vivo screen in infected Moro SPF mice; conditions: for inhibition in vivo at 10 mg/kg: Plasmodium berghei, 72 h; for antimalarial activity, overall assessment: overall judgement of in vitro and in vivo data of Table 2
Procedure: In the single dose STI in vivo screen, Moro SPF mice infected with the ANKA strain of P. Berghei (groups of three mice) were treated on day one post-infection with trioxolanes dissolved or suspended in 3% ethanol and 7% Tween 80. […] Antimalarial activity was measured by percent redution in parasitemia on day three post-infection and survival times compared to an untreated control group. Survival to day 30 post-infection is considered to be a cure.

[5] = test system: 21-day-old schistosomules of Schistosoma mansoni; assay: effect on 21-day-old schistosomules in mice; format: in vivo; conditions: single 200 mg/kg per os
Procedure: […] Each group was treated per os with OZ compounds at a single dose of 200 mg/kg. Untreated mice served as the control. All groups were killed 4 weeks after treatment and the liver and intestine were removed and separated. The liver and intestine were compressed and alive male and female worms could be seen and counted. The effect of the compounds was evaluated by mean total and female worm burden.

[6] = NF54, read-out: IC50 (ng/ml) NF54
[7] = percent reduction in parasitemia day 3 post-infection, single 100 mg/kg po
[8] = percent reduction in parasitemia day 3 post-infection, single 100 mg/kg sc
[9] = single 100 mg/kg po, survival to day 30 = cure
[10] = single 100 mg/kg sc, survival to day 30 = cure
[11] = percent reduction in parasitemia day 3 post-infection, single 10 mg/kg po
[12] = percent reduction in parasitemia day 3 post-infection, single 10 mg/kg sc
[13] = in vitro, NF54 strain, read-out: IC50 (ng/ml) NF54
[14] = in vitro, K1 strain, read-out: IC50 (ng/ml) K1

## CCOC(=O)C1CCC2(CC1)OOC1(O2)C2CC3CC(C2)CC1C3 (stereo not drawn) [OZ70, Adamantane-2-spiro-3′-8′-ethoxycarbonyl-1′,2′,4′-trioxaspiro[4.5]decane]
[1]; in vitro, NF54 strain
  IC50 (ng/ml) NF54: 1.1 ng/mL (≈ 3.27 nM)
[2]; in vitro, K1 strain
  IC50 (ng/ml) K1: 1.2 ng/mL (≈ 3.57 nM)
[3]
  Tm dec. (° C.): 162.8 °C
[4]; single 10 mg/kg po
  Survival (days) po: 7.7/7.7 days
[4]; single 10 mg/kg sc
  Survival (days) sc: 7.7/7.7 days

## C1CC2(CCO1)OOC1(O2)C2CC3CC(C2)CC1C3 (stereo not drawn) [OZ22, Adamantane-2-spiro-3′-1′,2′,4′,8′-tetraoxaspiro[4.5]decane]
[1]; [6]
  IC50: 0.56 ng/mL (≈ 2.1 nM)
[2]; K1, read-out: IC50 (ng/ml) K1
  IC50: 0.32 ng/mL (≈ 1.2 nM)
[4]; po, read-out: Activity (%) po
  inhibition in vivo at 10 mg/kg: 35%
[4]; sc, read-out: Activity (%) sc
  inhibition in vivo at 10 mg/kg: 99.6%
[5]; female worm reduction rate
  FWR (%): 76%
[5]; mean ± standard deviation
  Mean female worm burden: 3.0 ± 1.9^b
[5]; total worm reduction rate
  TWR (%): 75%

## O=C(O)[C@H]1CC[C@]2(CC1)OOC1(O2)C2CC3CC(C2)CC1C3 (stereo partly drawn) [OZ71, cis-Adamantane-2-spiro-3′-8′-carboxy-1′,2′,4′-trioxaspiro[4.5]decane]
[1]; in vitro, NF54 strain
  IC50 (ng/ml) NF54: 3.7 ng/mL (≈ 12 nM)
[2]; in vitro, K1 strain
  IC50 (ng/ml) K1: 4.5 ng/mL (≈ 14.6 nM)
[3]
  Tm dec. (° C.): 165.9 °C

## c1ccc2c(c1)CCC1(C2)OOC2(O1)C1CC3CC(C1)CC2C3 (stereo not drawn) [OZ85, Adamantane-2-spiro-3′-1′,2′,4′-trioxolane-5′-spiro-2″-3″,4″-dihydro-1″H-naphthalene]
[1]; in vitro, NF54 strain
  IC50 (ng/ml) NF54: /2.0 ng/ml
[2]; in vitro
  in vitro potency: very active
[3]
  Tm dec. (° C.): 152.8 °C

## c1ccc2c(c1)CCCC21OOC2(O1)C1CC3CC(C1)CC2C3 (stereo not drawn) [OZ84, Adamantane-2-spiro-3′-1′,2′,4′-trioxolane-5′-spiro-1″-3″,4″-dihydro-2″H-naphthalene]
[1]; in vitro, NF54 strain
  IC50 (ng/ml) NF54: /1.9 ng/ml
[2]; in vitro
  in vitro potency: very active
[3]
  Tm dec. (° C.): 164.5 °C
[4]; 10 mg/kg po/sc data of Table 2
  in vivo activity: good

## C1CCC2(CC1)OOC1(CCCCC1)O2 [OZ01, 7,14,15-Trioxadispiro[5.1.5.2]pentadecane]
[1]; [6]
  IC50: > 100 ng/mL
[2]; K1, read-out: IC50 (ng/ml) K1
  IC50: > 100 ng/mL
[4]
  antimalarial activity, overall assessment: less active
[4]; [7]
  Activity (%) po: 0/0%
[4]; [8]
  Activity (%) sc: 0/0%
[4]; [9]
  Survival (days) po: 5.3/5.3 days
[4]; [10]
  Survival (days) sc: 5.3/5.3 days

## c1ccc(C2(c3ccccn3)OOC3(O2)C2CC4CC(C2)CC3C4)nc1 (stereo not drawn) [OZ81, Adamantane-2-spiro-3′-5′,5′-bis(2′-pyridyl)-1′,2′,4′-trioxolane]
[1]; in vitro, NF54 strain
  IC50 (ng/ml) NF54: >10/>10 ng/ml
[2]; in vitro, K1 strain
  IC50 (ng/ml) K1: >10/>10 ng/ml
[3]
  Tm dec. (° C.): 150.7 °C
[4]
  antimalarial activity, overall assessment: inactive
[4]; [11]
  Activity (%) po: 0/0%
[4]; [12]
  Activity (%) sc: 0/0%

## Cc1ccc(S(=O)(=O)NN=C2CCC3(CC2)OOC2(O3)C3CC4CC(C3)CC2C4)cc1 (stereo not drawn) [OZ39, Adamantane-2-spiro-3′-1′,2′,4′-trioxaspiro[4.5]decan-8′-one tosylhydrazone]
[1]; [13]
  IC50: 1.8 ng/mL (≈ 4.03 nM)
[2]; [14]
  IC50: 1.4 ng/mL (≈ 3.14 nM)
[2]; in vitro, K1 and NF54 strains not distinguished, read-out: IC50
  IC50: < 2 ng/mL
[3]
  Tm dec. (° C.): 146.9 °C
[4]; percent reduction in parasitemia day 3 post-infection, single 10 mg/kg po, read-out: Activity (%) po
  inhibition in vivo at 10 mg/kg: 61%
[4]; percent reduction in parasitemia day 3 post-infection, single 10 mg/kg sc, read-out: Activity (%) sc
  inhibition in vivo at 10 mg/kg: 99.3%

## c1ccc(C2CCC3(CC2)OOC2(CCC(c4ccccc4)CC2)O3)cc1 (stereo not drawn) [OZ62, 3,11-Diphenyl-7,14,15-trioxadispiro[5.1.5.2]pentadecane]
[1]; [13]
  IC50: 28 ng/mL (≈ 76.8 nM)
[2]; [14]
  IC50: 33 ng/mL (≈ 90.5 nM)
[3]
  Tm dec. (° C.): 201.0 °C
[4]; [11]
  Activity (%) po: 0/0%
[4]; [12]
  Activity (%) sc: 0/0%

## O=C1CCC2(CC1)OOC1(CCCCC1)O2 [OZ02, 3-Oxo-7,14,15-trioxadispiro[5.1.5.2]pentadecane]
[1]; [13]
  IC50: 94 ng/mL (≈ 415 nM)
[2]; [14]
  IC50: > 100 ng/mL
[3]
  Tm dec. (° C.): 193.3 °C
[4]
  antimalarial activity, overall assessment: less active
[4]; [7]
  Activity (%) po: 0/0%
[4]; [8]
  Activity (%) sc: 0/0%
[4]; [9]
  Survival (days) po: 5.0/5.0 days
[4]; [10]
  Survival (days) sc: 5.0/5.0 days
